Results from ChEMBL document CHEMBL1201862, “PubChem BioAssay data set” (2004).
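Briefly, cells in 96-well plates were exposed to five compound concentrations for 48 h, and endpoints were estimated by linear interpolation. GI50: concentration for 50% inhibition of growth.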 Active and inactive are the calls of the source. Rule as the data show it: active = GI50 up to about 1.1 µM and inactive = higher.

What was measured:
Experiment in all cases: DTP human tumour cell line panel, 48 h
HCC 2998 = system: HCC 2998
SF-539 = system: SF-539
T47D = system: T47D
ACHN = system: ACHN
HCT-15 = system: HCT-15
HL-60 = system: HL-60
SN12C = system: SN12C
PC-3 = system: PC-3
UACC-257 = system: UACC-257
MOLT-4 = system: MOLT-4
HT-29 = system: HT-29
EKVX = system: EKVX
NCI-H460 = system: NCI-H460
HOP-62 = system: HOP-62
CAKI-1 = system: CAKI-1
RPMI-8226 = system: RPMI-8226
HCT-116 = system: HCT-116
MCF7 = system: MCF7
SK-MEL-28 = system: SK-MEL-28
A549 = system: A549

SMILES	GI50 (HCC 2998)	GI50 (SF-539)	GI50 (T47D)	GI50 (ACHN)	GI50 (HCT-15)	GI50 (HL-60)	GI50 (SN12C)	GI50 (PC-3)	GI50 (UACC-257)	GI50 (MOLT-4)	GI50 (HT-29)	GI50 (EKVX)	GI50 (NCI-H460)	GI50 (HOP-62)	GI50 (CAKI-1)	GI50 (RPMI-8226)	GI50 (HCT-116)	GI50 (MCF7)	GI50 (SK-MEL-28)	GI50 (A549)
C(=N\NC1=NCCN1)/c1cccc2cc3ccncc3nc12	5.71 µM (inactive)	5.85 µM (inactive)	2.14 µM (inactive)	2.84 µM (inactive)	3.4 µM	1.04 µM (active)	3.15 µM (inactive)	3.67 µM (inactive)	9.89 µM (inactive)	1.69 µM (inactive)	1.71 µM (inactive)	2.86 µM (inactive)	4.36 µM (inactive)	6.22 µM (inactive)	2.84 µM (inactive)	1.93 µM (inactive)	1.57 µM (inactive)	3.16 µM (inactive)	10.1 µM (inactive)	6.76 µM (inactive)
Cc1ccc(CNc2ccc(Br)cc2)cc1	20.6 µM (inactive)	36.8 µM (inactive)	29.5 µM (inactive)	11.4 µM (inactive)	10.4 µM	25.2 µM (inactive)	20.9 µM (inactive)	31.6 µM (inactive)	24.9 µM (inactive)	44.8 µM (inactive)	28.2 µM (inactive)	25.6 µM (inactive)	23.8 µM (inactive)	83.2 µM (inactive)	31.6 µM (inactive)	3.44 µM (inactive)	26.7 µM (inactive)	18.7 µM (inactive)	87.5 µM (inactive)	23.8 µM (inactive)
C=CC1(CC[C@]2(c3ccc(OC)c(OC)c3)C=[N+]([O-])O[C@H](O[C@@H]3CCCC[C@H]3C(C)(C)c3ccccc3)C2)OCC(C)(C)CO1	16.1 µM (inactive)	14.8 µM (inactive)	11.6 µM (inactive)	16 µM (inactive)	8.2 µM	1.97 µM (inactive)	10.8 µM (inactive)	7.23 µM (inactive)	18.8 µM (inactive)	3.78 µM (inactive)	9.79 µM (inactive)	12.7 µM (inactive)	16.5 µM (inactive)	14.7 µM (inactive)	6.95 µM (inactive)	2.34 µM (inactive)	5.57 µM (inactive)	3.65 µM (inactive)	19.9 µM (inactive)	14.6 µM (inactive)
CCOC(=O)c1cc(-n2nnc3ccccc32)cn1C	> 10 µM (inactive)	> 10 µM (inactive)	> 10 µM (inactive)	> 10 µM (inactive)	> 10 µM	> 10 µM (inactive)	> 10 µM (inactive)	> 10 µM (inactive)	> 10 µM (inactive)	> 10 µM (inactive)	> 10 µM (inactive)	> 10 µM (inactive)	> 10 µM (inactive)	> 10 µM (inactive)	> 10 µM (inactive)	> 10 µM (inactive)	> 10 µM (inactive)	> 10 µM (inactive)	> 10 µM (inactive)	> 10 µM (inactive)
